Broadly, the IC50 is the midpoint of a concentration-inhibition curve. For orientation: inhibition means the share of the control response that was lost under treatment.

Experimental findings from ChEMBL document CHEMBL4602677, “Protective Effects of Compounds from Cimicifuga dahurica against Amyloid Beta Production in Vitro and Scopolamine-Induced Memory Impairment in Vivo” (J Nat Prod, 2020) are described below.

Molecules are shown by their SMILES. Calls of active or inactive are those of the source. No cut-off for these calls is given here.

Data set [1] concerns CHO. The data set is described as follows: Cytotoxicity against CHO cells stably expressing amyloid precursor protein at 2.5 to 10 uM after 24 hrs by MTT assay. The class given is cell-based, Cricetulus griseus. The note with it: chinese hamster. For orientation: Tetrazolium assays rely on reduction of a dye to a coloured formazan, in cell work by metabolically active cells.

The nature of data set [2]: Inhibition of gamma secretase in CHO cells stably expressing amyloid precursor protein assessed as reduction in Abeta42 levels by ELISA. The class given is cell-based. The note with it: Cricetulus griseus. Background: ELISA stands for enzyme-linked immunosorbent assay.
Data set [3] can be described thus: (§1) Inhibition of BACE1 in CHO cells stably expressing amyloid precursor protein assessed as reduction in sAPPbeta expression after 24 hrs by Western blot analysis. In kind it is cell-based. The note with it: Cricetulus griseus. For orientation: In western blotting, separated proteins are transferred to a membrane and probed.
For data set [4], the system named is CHO. The description is as §1. The note with it: Cricetulus griseus. The class given is cell-based.
The subject of data set [5] is CHO. Briefly: Inhibition of gamma secretase in CHO cells stably expressing amyloid precursor protein assessed as reduction in Abeta42 levels at 10 uM by ELISA relative to control. In kind it is cell-based. The note with it: Cricetulus griseus.
Data set [6] is described as follows: (§2) Inhibition of BACE1 in CHO cells stably expressing amyloid precursor protein after 24 hrs by Western blot analysis. In kind it is cell-based, Cricetulus griseus.
In data set [7] the test system is CHO. The description is as §2. The note with it: Cricetulus griseus. The class given is cell-based.
In data set [8] the test system is CHO. Briefly: Inhibition of BACE1 in CHO cells stably expressing amyloid precursor protein assessed as sAPPbeta level at 10 uM after 24 hrs by Western blot analysis relative to control. In kind it is cell-based. The note with it: Cricetulus griseus.
The subject of data set [9] is Mus musculus. The data set is described as follows: Neuroprotective activity against scopolamine-induced memory impairment in ICR mouse assessed as increase in cortical phosphorylated CREB level at 1.25 to 2.5 mg/kg, po administered for 7 days by Western blot analysis. In kind it is functional, organism-based.
Data set [10] has as its system Mus musculus. Briefly: Memory improvement effect in ICR mouse model of scopolamine-induced memory impairment assessed as discrimination index at 5 mg/kg, po administered for 7 days followed by scopolamine challenge 30 mins prior to test by object recognition test (reference value: 60.14 +/- 2.1%). The class given is functional.
Data set [11] relates to Mus musculus. Briefly: Neuroprotective activity against scopolamine-induced memory impairment in ICR mouse assessed as increase in cortical phosphorylated AKT level at 5 mg/kg, po administered for 7 days by Western blot analysis. The class given is functional, organism-based.
The subject of data set [12] is Mus musculus. The data set is described as follows: Cognitive enhancing effect in ICR mouse model of scopolamine-Induced memory impairment assessed as escape latency time at 5 mg/kg, po administered for 7 days and measured after 60 mins at first day of training session by Morris water maze test (reference value: 84.5 +/- 4.6 secs). In kind it is functional.
Data set [13] deals with Mus musculus. The data set is described as follows: Cognitive enhancing effect in ICR mouse model of scopolamine-Induced memory impairment assessed as time spent in target quadrant at 5 mg/kg, po administered for 7 days and measured on day 6 by Morris water maze test (reference value: 14.48 +/- 1.6 secs). In kind it is functional.
The subject of data set [14] is Mus musculus. The data set is described as follows: Neuroprotective activity against scopolamine-induced memory impairment in ICR mouse assessed as increase in hippocampal phosphorylated AKT level at 2.5 to 5 mg/kg, po administered for 7 days by Western blot analysis. In kind it is functional, organism-based.
Data set [15] deals with Mus musculus. Briefly: Suppression of AChE in ICR mouse model of scopolamine-induced memory impairment assessed as reduction in protein activity in hippocampus at 5 mg/kg,po administered for 7 days by Ellman's method. The class given is functional, organism-based.
Data set [16] relates to Mus musculus. The data set is described as follows: Cognitive enhancing effect in ICR mouse model of scopolamine-Induced memory impairment assessed as escape latency time at 2.5 mg/kg, po administered for 7 days and measured after 60 mins at first day of training session by Morris water maze test (reference value: 84.5 +/- 4.6 secs). The class given is functional.
Data set [17] has as its system Mus musculus. Briefly: Neuroprotective activity against scopolamine-induced memory impairment in ICR mouse assessed as increase in cortical phosphorylated ERK level at 1.25 to 5 mg/kg, po administered for 7 days by Western blot analysis. In kind it is functional, organism-based.
Data set [18] has as its system Mus musculus. Briefly: Neuroprotective activity against scopolamine-induced memory impairment in ICR mouse assessed as increase in hippocampal phosphorylated CREB level at 5 mg/kg, po administered for 7 days by Western blot analysis. The class given is functional, organism-based.
In data set [19] the test system is Mus musculus. The data set is described as follows: Reversal of scopolamine-induced amnesic effect in ICR mouse assessed as step-through latecy time at 5 mg/kg, po administered for 7 days followed by scopolamine challenge 30 mins prior to test by passive avoidance test (reference value: 10.80 +/- 4.1 secs). The class given is functional.
Data set [20] deals with Mus musculus. The data set is described as follows: Cognitive enhancing effect in ICR mouse model of scopolamine-Induced memory impairment assessed as escape latency time at 5 mg/kg, po administered for 7 days and measured after 60 mins at 5th day of training session by Morris water maze test (reference value: 77.5 +/- 6.6 secs). In kind it is functional.
Data set [21] has as its system Mus musculus. The data set is described as follows: Memory improvement effect in ICR mouse model of scopolamine-induced memory impairment assessed as discrimination index at 2.5 mg/kg, po administered for 7 days followed by scopolamine challenge 30 mins prior to test by object recognition test (reference value: 60.14 +/- 2.1%). In kind it is functional.
The test system of data set [22] is Mus musculus. The data set is described as follows: Cognitive enhancing effect in ICR mouse model of scopolamine-Induced memory impairment assessed as escape latency time at 2.5 mg/kg, po administered for 7 days and measured after 60 mins at 5th day of training session by Morris water maze test (reference value: 77.5 +/- 6.6 secs). The class given is functional.

For data set [23], the system named is Mus musculus. Briefly: Reversal of scopolamine-induced amnesic effect in ICR mouse assessed as step-through latecy time at 1.25 mg/kg, po administered for 7 days followed by scopolamine challenge 30 mins prior to test by passive avoidance test (reference value: 10.80 +/- 4.1 secs). The class given is functional.
The test system of data set [24] is Mus musculus. Briefly: Reversal of scopolamine-induced amnesic effect in ICR mouse assessed as step-through latecy time at 2.5 mg/kg, po administered for 7 days followed by scopolamine challenge 30 mins prior to test by passive avoidance test (reference value: 10.80 +/- 4.1 secs). In kind it is functional.
The subject of data set [25] is Mus musculus. Briefly: Cognitive enhancing effect in ICR mouse model of scopolamine-induced short-term memory impairment assessed as increase in spontaneous alteration at 5 mg/kg, po administered for 7 days followed by scopolamine challenge 30 mins prior to test by Y-maze test. The class given is functional.
Data set [26] deals with Mus musculus. The data set is described as follows: Cognitive enhancing effect in ICR mouse model of scopolamine-Induced memory impairment assessed as time spent in target quadrant at 2.5 mg/kg, po administered for 7 days and measured on day 6 by Morris water maze test (reference value: 14.48 +/- 1.6 secs). The class given is functional.
Data set [27] deals with Mus musculus. The data set is described as follows: Neuroprotective activity against scopolamine-induced memory impairment in ICR mouse assessed as increase in hippocampal phosphorylated ERK level at 2.5 to 5 mg/kg, po administered for 7 days by Western blot analysis. In kind it is functional, organism-based.
Data set [28] has as its system Mus musculus. Briefly: Cognitive enhancing effect in ICR mouse model of scopolamine-Induced memory impairment assessed as time spent in target quadrant at 1.25 mg/kg, po administered for 7 days and measured on day 6 by Morris water maze test (reference value: 14.48 +/- 1.6 secs). In kind it is functional.
In data set [29] the test system is Mus musculus. The data set is described as follows: Cognitive enhancing effect in po dosed ICR mouse model of scopolamine-Induced memory impairment assessed as increase in time spent in target quadrant administered for 7 days and measured on day 6 by Morris water maze test. The class given is functional, organism-based.

Regarding `CC(=O)O[C@@H]1[C@H](O)[C@@H](O)[C@H](O[C@H]2CC[C@]34C[C@]35CC[C@]3(C)[C@H]6[C@H](C)C[C@H]([C@@H](OC(C)=O)C(C)(C)O)O[C@@]6(O)[C@H](O)[C@@]3(C)C5=CC[C@H]4C2(C)C)O[C@@H]1CO`, the Activity entry in data set [1] is on record as “Non-Toxic”. Further, the IC50 in data set [2] turned out to be 14.4 µM; in [3] it was 8.3 µM; in [6], 7.8 µM. Also, the inhibition entry in data set [4] was “Dose-dependent effect”; in data set [5], 34.7%; in data set [7], “Dose-dependent effect”.
Consider `COC(C)(C)[C@H]1O[C@@]23O[C@@H]1C[C@@H](C)[C@@H]2[C@@]1(C)CC[C@@]24C[C@@]25CC[C@H](O[C@@H]2OC[C@@H](O)[C@H](O)[C@H]2O)C(C)(C)[C@@H]5CC=C4[C@]1(C)[C@H]3O`, for which the inhibition is 20% in [8], “Dose-dependent effect” in data set [4], 48.9% in [5] and “Dose-dependent effect” in data set [7]. Moreover, the Activity result in data set [1] was “Non-Toxic”. For the same compound, the figures for the IC50 in [2], in data set [3] and in data set [6] were 10.1 µM, 7.1 µM and 8.1 µM, respectively.
For the compound `C[C@@H]1C[C@H]([C@@H](O)C(C)(C)O)O[C@H]2C(=O)[C@@]3(C)C4=C(CC[C@]3(C)[C@@H]12)C[C@]12CC[C@H](O1)C(C)(C)[C@@H]2CC4`, the inhibition is 20% in data set [8], “Dose-dependent effect” in data set [4], 80.6% in data set [5] and “Dose-dependent effect” in [7]. Besides, the Activity entry in data set [1] was “Non-Toxic”. Further, the IC50 in data set [2] stood at 6.2 µM; in [3] it was 4.3 µM; in [6], 6.2 µM.
On to `CC(=O)O[C@H]([C@H]1C[C@@H](C)[C@H]2[C@@](O)(O1)[C@H](O)[C@@]1(C)C3=CC[C@H]4C(C)(C)[C@@H](O[C@@H]5OC[C@@H](O)[C@H](O)[C@H]5O)CC[C@@]45C[C@@]35CC[C@]21C)C(C)(C)O`, for which the result in [9], in [11], in data set [14], in [15], in data set [17] and in data set [18] was Active. The result in data set [27] was Active. The inhibition was 20% in [8], “Dose-dependent effect” in [4], 61.7% in data set [5] and “Dose-dependent effect” in [7]. Also, the Activity is 68% in [10]; “Non-Toxic” in data set [1]; 64.29% in data set [21]; 11.6% in [25]; “Dose-dependent effect” in data set [29]. Moreover, the Time in [12] came out at 76 s; in [13], 25.86 s; in data set [16], 80.7 s; in data set [19], 46.9 s; in data set [20], 48.1 s; in data set [22], 49.4 s. Besides, the Time in data set [23] amounted to 14.5 s; in data set [24], 28.8 s; in data set [26], 20.4 s; in [28] it was 18.43 s. Further, the figures for the IC50 in [2], in [3] and in [6] were 8.1 µM, 6.1 µM and 7.1 µM, respectively.
